Legend:
Gal4-RORγ-LBD = target: T1, Gal4-RORγ-LBD (Homo sapiens, UniProt P51449); assay: Gal4-RORγ Luciferase Reporter Assay in HEK-293T Cells; type: cell-based; conditions: HEK-293 cells, 2 μM ursolic acid
T1 construct: expressed in transfected cells; host or cells: HEK-293 cells (pcDNA3.1neo plasmid)
T1 sequence (P51449 269-508 limits assumed): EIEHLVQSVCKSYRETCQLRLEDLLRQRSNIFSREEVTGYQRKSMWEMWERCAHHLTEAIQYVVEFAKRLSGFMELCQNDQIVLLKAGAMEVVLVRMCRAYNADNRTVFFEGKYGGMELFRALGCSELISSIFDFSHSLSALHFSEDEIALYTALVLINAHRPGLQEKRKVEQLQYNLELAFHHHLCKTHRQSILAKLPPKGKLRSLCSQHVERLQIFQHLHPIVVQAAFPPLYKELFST
Description: Assay procedures and results are described below.
In the following protocol, HEK-293 cells were transfected with a construct comprising the Gal4 DNA binding domain fused to the ligand binding domain of RORγ (Gal4-RORγ-LBD) in a pcDNA3.1neo plasmid, and also with a reporter construct comprising pGL4.31 Gal4-luciferase (Promega). Control cells were prepared similarly using empty pcDNA3.1neo and pGL4.31 vectors.
Trans-IT reagent (Mirus, 60 μL) at room temperature was added drop wise to OptiMEM (Invitrogen, 1.5 ml). This reagent mixture was mixed by inversion then incubated for 5 to 30 minutes at room temperature. It then was added to a solution of both expression vectors (5 μg each), mixed, and incubated at room temperature for about 20 minutes. HEK-293 cells were harvested from incubation flasks by removing the media, treating with TrypLE Express (Invitrogen), and incubating until the cells detached from the bottom of the flask (approximately 2-5 minutes). 10 Million cells were collected by centrifugation and re-suspended in 10 mL of Dulbecco's Modified Eagle Medium, High Glucose (DMEM, Invitrogen) containing 10% Fetal Bovine Serum and 100 IU each of penicillin and streptomycin. The re-suspended cells and the transfection mixture were added to a T75 flask, mixed and incubated overnight at 37° C. and 5% CO2.
The cells were harvested as described above, counted, and centrifuged to obtain the desired number of cells, then re-suspended in complete growth media at 0.75×10^6 cells/mL. The RORγ antagonist, ursolic acid, was added to the cells at a final concentration of 2 μM. Cells were plated at 20 μL of cell suspension/well (10,000-15,000 cells/well) in white tissue culture treated 384 well plates. Test compounds were dissolved at 10 mM in DMSO then diluted into complete growth medium to 5× the final intended test concentration. These drug stock solutions, 5 μL/well were added to the tissue culture plate. The final DMSO concentration was 0.2%. The plates were briefly centrifuged then incubated overnight at 37° C. and 5% CO2. To conduct the assay, the tissue culture plates were allowed to equilibrate to room temperature and One-Glo luciferase reagent (Promega, 25 μL/well) was added. The plates were briefly centrifuged then incubated at room temperature for 10 minutes. The luciferase intensity was read on an Envision plate reader (Perkin Elmer). […] The luciferase signal in the absence of ursolic acid or test compound is defined at 100. The Max Response is the upper plateau in the signal as determined by line-fit using a 4-parameter logistic model in PRISM (GraphPad).

RORγ-LBD = target: T2, RORγ-LBD (Homo sapiens, UniProt P51449); assay: RORγ-Ligand Binding Domain (LBD) TR-FRET Assay; type: biochemical;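 for TR-FRET Assay Max Response: 665/615 nm ratio relative to signal without ursolic acid or compound set at 100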
T2 construct: made in house; host or cells: SF9 cells (baculovirus)
T2 sequence (P51449 269-508 limits assumed): T1 sequence (P51449 269-508 limits assumed)
In short: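 This TR-FRET coactivator assay pairs baculovirus-expressed His-RORγ-LBD (~3 nM final) with biotin-SRC1 LXXLL peptide at 200 nM final in pH 7.0 Tris/KCl/EDTA/DTT/BSA buffer.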

Row | Structure (SMILES) | EC50 (Gal4-RORγ-LBD) [nM] | EC50 (RORγ-LBD) [nM] | Gal4-RORγ Assay Max Response (Gal4-RORγ-LBD) | TR-FRET Assay Max Response (RORγ-LBD)
1 | O=C(O)CO[C@@H]1Cc2ccc(-c3cc(F)cc(OC(F)F)c3)cc2N(S(=O)(=O)c2cccc(C(F)(F)F)c2)C1 [Compound 83E, (R)-2-((7-(3-(difluoromethoxy)-5-fluorophenyl)-1-((3-(trifluoro-methyl)phenyl)sulfonyl)-1,2,3,4-tetrahydroquinolin-3-yl)oxy)acetic acid] | 500 to 5000 | – | * (The symbol “*” indicates a value in the range of 25 to 90) | –
2 | CC(=O)N[C@H]1C[C@H]([C@H]2CN(S(=O)(=O)c3cccc(C(F)(F)F)c3)c3cc(-c4cc(F)ccc4F)ccc3O2)C1 [Compound 60M, N-((1S,3r)-3-((S)-6-(2,5-difluorophenyl)-4-((3-(trifluoro-methyl)phenyl)sulfonyl)-3,4-dihydro-2H-benzo[b][1,4]-oxazin-2-yl)cyclobutyl)-acetamide] | < 500 | – | ** (The symbol “**” indicates a value in the range of greater than 90 to 150) | –
3 | O=C(O)C1(C[C@H]2CN(S(=O)(=O)c3cncc(C(F)(F)F)c3)c3cc(-c4cc(F)ccc4F)ccc3O2)COC1 [Compound 51K, (S)-3-((6-(2,5-difluorophenyl)-4-((5-(trifluoromethyl)pyridin-3-yl)sulfonyl)-3,4-dihydro-2H-benzo[b][1,4]oxazin-2-yl)methyl)oxetane-3-carboxylic acid] | 500 to 5000 | – | *** (The symbol “***” indicates a value in the range of greater than 150 to 200) | –
4 | COc1cc(Cl)cc(-c2ccc3c(c2)N(S(=O)(=O)c2cccc(C(F)(F)F)c2)C[C@H](CC2(C(=O)O)CCOCC2)O3)c1 [Compound 78L, (S)-4-((6-(3-chloro-5-methoxy-phenyl)-4-((3-(trifluoromethyl)-phenyl)sulfonyl)-3,4-dihydro-2H-benzo[b][1,4]oxazin-2-yl)methyl)tetrahydro-2H-pyran-4-carboxylic acid] | < 500 | – | ** (The symbol “**” indicates a value in the range of greater than 90 to 150) | –
5 | O=C(O)CC[C@H]1CN(S(=O)(=O)c2cccc(C(F)(F)F)c2)c2cc(-c3cc(F)cc(F)c3)c(Cl)cc2O1 [Compound 22L, (S)-3-(7-chloro-6-(3,5-difluoro-phenyl)-4-((3-(trifluoromethyl)-phenyl)sulfonyl)-3,4-dihydro-2H-benzo[b][1,4]oxazin-2-yl)propanoic acid] | < 500 | – | ** (The symbol “**” indicates a value in the range of greater than 90 to 150) | –
6 | O=C(O)[C@H]1C[C@H]([C@H]2CN(S(=O)(=O)c3cccc(C(F)(F)F)c3)c3cc(-c4cccc(C(F)(F)F)n4)ccc3O2)C1 [Compound 72, (1S,3r)-3-((S)-4-((3-(trifluoromethyl)phenyl)sulfonyl)-6-(6-(trifluoromethyl)pyridin-2-yl)-3,4-dihydro-2H-benzo[b][1,4]oxazin-2-yl)cyclobutane-1-carboxylic acid] | – | < 500 | – | ** (The symbol “**” indicates a value in the range of greater than 90 to 150)
7 | O=C(O)[C@H]1C[C@H]([C@H]2CN(S(=O)(=O)c3cccc(C(F)(F)F)c3)c3cc(-c4cc(F)ccc4F)ccc3O2)C1 [Compound 60I, (1S,3r)-3-((S)-6-(2,5-difluoro-phenyl)-4-((3-(trifluoromethyl)-phenyl)sulfonyl)-3,4-dihydro-2H-benzo[b][1,4]oxazin-2-yl)cyclobutane-1-carboxylic acid] | – | < 500 | – | ** (The symbol “**” indicates a value in the range of greater than 90 to 150)
8 | O=C(O)CC[C@H]1CN(S(=O)(=O)c2cccc(C(F)(F)F)c2)c2cc(-c3ccc(F)cc3F)ccc2O1 [Compound 2D, (S)-3-(6-(2,4-difluorophenyl)-4-((3-(trifluoromethyl)phenyl)-sulfonyl)-3,4-dihydro-2H-benzo[b][1,4]oxazin-2-yl)propanoic acid] | – | < 500 | – | ** (The symbol “**” indicates a value in the range of greater than 90 to 150)

Continued, in another order:

Row | EC50 (Gal4-RORγ-LBD) [nM] | EC50 (RORγ-LBD) [nM] | Structure (SMILES) | Gal4-RORγ Assay Max Response (Gal4-RORγ-LBD) | TR-FRET Assay Max Response (RORγ-LBD)
9 | 500 to 5000 | – | C[C@]1(C(=O)O)C[C@H](C[C@H]2CN(S(=O)(=O)c3cccc(C(F)(F)F)c3)c3cc(-c4cc(F)cc(OC(F)F)c4)ccc3O2)C1 [Compound 69, (1S,3r)-3-(((S)-6-(3-(difluoromethoxy)-5-fluorophenyl)-4-((3-(trifluoromethyl)phenyl)sulfonyl)-3,4-dihydro-2H-benzo[b][1,4]oxazin-2-yl)methyl)-1-methylcyclobutane-1-carboxylic acid] | ** (The symbol “**” indicates a value in the range of greater than 90 to 150) | –
10 | < 500 | – | O=C(O)C1(C[C@H]2CN(S(=O)(=O)c3cccc(C(F)(F)F)c3)c3cc(-c4cc(F)cc(OC(F)F)c4F)ccc3O2)CCOCC1 [Compound 78V, (S)-4-((6-(3-(difluoromethoxy)-2,5-difluorophenyl)-4-((3-(trifluoromethyl)phenyl)sulfonyl)-3,4-dihydro-2H-benzo[b][1,4]oxazin-2-yl)methyl)tetrahydro-2H-pyran-4-carboxylic acid] | ** (The symbol “**” indicates a value in the range of greater than 90 to 150) | –
11 | < 500 | – | O=C(O)[C@]1(C[C@H]2CN(S(=O)(=O)c3cccc(C(F)(F)F)c3)c3cc(-c4cc(F)cc(OC(F)F)c4)ccc3O2)C[C@H](O)C1 [Compound 67, (1s,3S)-1-(((S)-6-(3-(difluoromethoxy)-5-fluorophenyl)-4-((3-(trifluoromethyl)phenyl)sulfonyl)-3,4-dihydro-2H-benzo[b][1,4]oxazin-2-yl)methyl)-3-hydroxycyclobutane-1-carboxylic acid] | ** (The symbol “**” indicates a value in the range of greater than 90 to 150) | –
12 | 500 to 5000 | – | O=C(O)[C@]1(C[C@H]2CN(S(=O)(=O)c3cccc(C(F)(F)F)c3)c3cc(-c4cc(F)cc(OC(F)F)c4)ccc3O2)C[C@](O)(CO)C1 [Compound 87, (1r,3R)-1-(((S)-6-(3-(difluoromethoxy)-5-fluorophenyl)-4-((3-(trifluoromethyl)phenyl)sulfonyl)-3,4-dihydro-2H-benzo[b][1,4]oxazin-2-yl)methyl)-3-hydroxy-3-(hydroxymethyl)cyclobutane-1-carboxylic acid] | ** (The symbol “**” indicates a value in the range of greater than 90 to 150) | –
13 | < 500 | – | O=C(O)C1(C[C@H]2CN(S(=O)(=O)c3cccc(C(F)(F)F)c3)c3cc(-c4cc(F)cc(F)c4)ccc3O2)CCOCC1 [Compound 78N, (S)-4-((6-(3,5-difluorophenyl)-4-((3-(trifluoromethyl)phenyl)-sulfonyl)-3,4-dihydro-2H-benzo[b][1,4]oxazin-2-yl)methyl)tetrahydro-2H-pyran-4-carboxylic acid] | ** (The symbol “**” indicates a value in the range of greater than 90 to 150) | –
14 | < 500 | – | O=C(O)C1(C[C@H]2CN(S(=O)(=O)c3cccc(C(F)F)c3)c3cc(-c4cc(F)cc(OC(F)F)c4)ccc3O2)COC1 [Compound 51J, (S)-3-((6-(3-(difluoromethoxy)-5-fluorophenyl)-4-((3-(difluoro-methyl)phenyl)sulfonyl)-3,4-dihydro-2H-benzo[b][1,4]oxazin-2-yl)methyl)oxetane-3-carboxylic acid] | ** (The symbol “**” indicates a value in the range of greater than 90 to 150) | –
15 | < 500 | – | O=C(O)[C@]1(C[C@H]2CN(S(=O)(=O)c3cccc(C(F)(F)F)c3)c3cc(-c4cc(F)cc(OC(F)F)c4)ccc3O2)C[C@@H](O)C1 [Compound 68, (1r,3R)-1-(((S)-6-(3-(difluoromethoxy)-5-fluorophenyl)-4-((3-(trifluoromethyl)phenyl)sulfonyl)-3,4-dihydro-2H-benzo[b][1,4]oxazin-2-yl)methyl)-3-hydroxycyclobutane-1-carboxylic acid] | ** (The symbol “**” indicates a value in the range of greater than 90 to 150) | –

Source: patent US10611740B2, “Aryl dihydro-2H-benzo[b][1,4]oxazine sulfonamide and related compounds for use as agonists of RORγ and the treatment of disease” (Lycera Corporation, priority 2015, dated 2020)
